Legend:
[1] = target: PGE2 receptor (EP2) (MP412) (Mus musculus, UniProt P32240); test: Inhibition of [3H]-PGE2 binding to MP412-transfected COS-1 cell membranes; details: for inhibition of PGE2 binding by subtype ligands: FIG. 8; for order of inhibition of specific [3H]-PGE2 binding by unlabeled PG: FIG. 7
Procedure: Mouse mastocytoma P-815 cell cDNA library carring cDNAs larger than 2.0 kb was prepared according to Example 1 (2). The probe DNA was prepared by PCR using mouse EP3 cDNA as a template; this 482 bp fragment covers the transmembrane segments I-IV region of the EP3 receptor. The 2.0×10^5 clones derived from the cDNA library were screened under either high (Sambrook) or low stringency condition. […] This cDNA was transfected into COS-1 cells according to the same manner as in Example 1 (3).
After the COS-1 cells carring the plasmid DNA obtained in above (1) were cultured for 72 h, cells were harvested and cell membranes were prepared.

[2] = target: T1, PGE2 receptor (EP3), subtype EP3α (MP660) (Mus musculus, UniProt P30557); test: Inhibition of [3H]-PGE2 binding to MP660-transfected COS-1 cell membranes; ligand-binding test; details: for potency in competing for [3H]PGE2 binding relative to PGE2 / competition for [3H]PGE2 binding: FIG. 2b; for competition for [3H]PGE2 binding: PGE analogues; for order of inhibition of [3H]PGE2 binding by unlabeled PGs: FIG. 2a
T1 sequence (P30557 1-365): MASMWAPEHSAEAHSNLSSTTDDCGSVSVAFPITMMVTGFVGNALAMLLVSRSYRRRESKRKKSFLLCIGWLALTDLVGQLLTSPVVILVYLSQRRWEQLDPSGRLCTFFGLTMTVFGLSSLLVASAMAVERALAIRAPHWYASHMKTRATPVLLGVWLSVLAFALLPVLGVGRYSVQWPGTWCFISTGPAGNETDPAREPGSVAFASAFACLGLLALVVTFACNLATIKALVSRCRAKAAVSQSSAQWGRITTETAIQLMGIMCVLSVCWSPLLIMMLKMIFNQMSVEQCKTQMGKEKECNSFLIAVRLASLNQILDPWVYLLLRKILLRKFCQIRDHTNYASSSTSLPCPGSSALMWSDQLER
Text: (§1) The cDNA of MP660 was cleaved out with EcoRI and inserted to pcDNAI (Invitrogen) and subcloned, followed by transfection of this plasmid DNA to COS-1 cells by the DEAE-dextran method [D. J. Sussmann and G. Milman, Mol. Cell. Biol., 4, 1641 (1984)]. After 72-hour cultivation, cells were harvested and cell membranes were separated [M. Hirata al., Nature, 349, 617 (1991)].

[3] = target: T2, EP3α receptor (MP660/KCR cells) (Mus musculus, UniProt P30557); test: Forskolin-stimulated cAMP synthesis in CHO cells stably expressing EP3α (MP660/KCR cells); type: cell-based
T2 construct: A full-length DNA clone having a 1,095 bp open reading frame, MP660, was thus obtained; expressed in transfected cells; host or cells: CHO-dhfr (lacking dihydrofolate reductase activity) cells; FERM BP-3803)
T2 sequence (P30557 1-365): T1 sequence (P30557 1-365)
Procedure: (§2) To obtain cells that stably express the receptor gene, cDNA transfection was conducted by the method described by Nakajima et al. [J. Biol. Chem., 267, 2437 (1992)] to establish a cell line. Specifically, the EcoRI fragment of MP660 was inserted to pdKCR-dhfr [S. Oikawa et al., Biochem. Biophys. Res. Commun., 164, 39 (1989)], a eukaryotic cell expression vector having the mouse dhfr gene as a selection marker. This plasmid was transfected to CHO-dhfr (lacking dihydrofolate reductase activity) cells [G. Urlaub and L. A. Chasin, Proc. Natl. Acad. Sci. USA, 77, 4216 (1980)] by the calcium phosphate method [F. L. Graham and A. J. van der Eb, Virology, 52, 456 (1973)]. The cells were subjected to selection culture in α-modified Eagle's medium [S. Oikawa et al., Biochem. Biophys. Res. Commun., 164, 39 (1989)] which contained no ribonucleoside and deoxyribonucleoside and which contained 100 unit/ml penicillin, 100 μg/ml streptomycin and 10% dialyzed bovine fetal serum (Cell Culture Laboratories). The cells which proliferated were cloned and clone cells were obtained. EP3α receptor cDNA transfection was confirmed by the RNA blotting method.

[4] = system: EP3β receptor (MP653/KCR cells); test: Forskolin-stimulated cAMP synthesis in CHO cells stably expressing EP3β (MP653/KCR cells); type: cell-based, mouse
Procedure: as §2, with “of MP653” for “of MP660”, “to CHO-dhfr(lacking” for “to CHO-dhfr (lacking”, “method [(F.” for “method [F.”, “cloned to have” for “cloned and”, “clone cells. EP3β” for “clone cells were obtained. EP3α”, “method. Using thus-obtained CHO cells which constantly express the EP3β receptor [MP653/KCR cells; IFO 50397, FERM BP-4183], the effect of PGE2 on forskolin-stimulated cAMP synthesis or M&B28, 767, an EP3 -specific agonist was assessed.” for “method.”

EP2 = details: literature; cited from earlier work
EP2 receptor (MP412) = target: T3, EP2 receptor (MP412) (Mus musculus, UniProt P32240); test: cAMP assay in MP412-transfected COS-1 cells; type: cell-based
T3 construct: cAMP and inositol phosphate tests
T3 sequence (P32240 whole entry): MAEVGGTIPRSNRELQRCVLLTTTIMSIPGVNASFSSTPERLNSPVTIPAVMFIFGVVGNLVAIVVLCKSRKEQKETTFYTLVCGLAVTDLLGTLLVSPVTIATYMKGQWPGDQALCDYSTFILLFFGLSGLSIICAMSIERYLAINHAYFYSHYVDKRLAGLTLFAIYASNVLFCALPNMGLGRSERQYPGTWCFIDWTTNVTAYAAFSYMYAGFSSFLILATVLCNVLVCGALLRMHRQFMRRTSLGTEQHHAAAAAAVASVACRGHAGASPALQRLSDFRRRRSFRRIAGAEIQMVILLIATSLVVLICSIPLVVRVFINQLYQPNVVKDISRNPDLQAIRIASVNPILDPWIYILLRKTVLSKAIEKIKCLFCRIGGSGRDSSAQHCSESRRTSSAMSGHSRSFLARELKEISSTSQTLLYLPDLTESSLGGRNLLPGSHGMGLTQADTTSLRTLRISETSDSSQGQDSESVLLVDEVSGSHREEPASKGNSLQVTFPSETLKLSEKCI
Procedure: For cAMP assay, the plasmid DNA was transfected into COS-1 cells by the lipofection method (P. L. Felgner et al., Proc. Natl. Acad. Sci., 84, 7413 (1987)) and cultured for 72 h in a 24-well plate. Cyclic AMP levels in the cells were determined according to the method of Nakajima et al. (J. Biol. Chem. 267, 2437 (1992)).

EP3β receptor (MP653) = test: Ligand-binding assay, [3H]-PGE2 binding to MP653-transfected COS-1 cell membranes; parameters: species or system mouse
Text: as §1, with “MP653” for “MP660”, “Hirata et” for “Hirata”, “(1991)]. […] Also, the PGE2 receptor obtained was identified as the subtype EP3β receptor. The result of inhibitory activities of various ligands on the binding of [^3 H]-PGE2 to the MP653-transfected cell membrance was substantially the same as on the binding of [^3 H]-PGE2 to the MP660--transfected cell membrance obtained in Example 1.” for “(1991)].”

[5] = system: membranes of untransfected cells; test: [3H]-PGE2 binding to membranes of untransfected COS-1 cells (control); details: untransfected COS-1 cell membranes
Text: as §1, with “(1991)]. […] Also, the PGE2 receptor obtained was identified as the subtype EP3α receptor.” for “(1991)].”
After the COS-1 cells carring the plasmid DNA obtained in above (1) were cultured for 72 h, cells were harvested and cell membranes were prepared. […] The lack of binding activity of butaprost in mouse EP2 might indicate that the action of butaprost is species specific or there may be other forms of EP2 receptor subtype.

PGE2 receptor (EP2) (MP412), sequence (P32240 whole entry, the tested form may be a part): as the sequence (P32240 whole entry) above

## CCCCC(C)(O)C/C=C/[C@H]1[C@H](O)CC(=O)[C@@H]1CCCCCCC(=O)OC (mixture of isomers) [misoprostol]
[1]
  inhibition of PGE2 binding by subtype ligands: inhibited

## O=C(CC/C=C\CC[C@H]1C(=O)C[C@@H](O)[C@@H]1OCC(O)COc1ccccc1)Oc1ccc(NC(=O)c2ccccc2)cc1 (some centres unmarked) [GR 63799X]
[2]
  potency in competing for [3H]PGE2 binding relative to PGE2: more potent than PGE2 itself
  competition for [3H]PGE2 binding: specifically competed for the[^3 H]PGE2 binding with equal potency

## O=C(O)CCCCCC[C@H]1C(=O)CC[C@@H]1/C=C/[C@@H](O)COc1ccccc1 [M&B 28,767]
[2]
  potency in competing for [3H]PGE2 binding relative to PGE2: more potent than PGE2 itself
  competition for [3H]PGE2 binding: specifically competed for the[^3 H]PGE2 binding with equal potency
[3]; FIG. 3
  effect on forskolin-induced cAMP synthesis/accumulation: inhibited forskolin-induced cAMP synthesis
  potency in inhibiting forskolin-induced cAMP synthesis relative to PGE2: more potent than (PGE2
[4]
  effect on forskolin-stimulated cAMP synthesis: cAMP synthesis in MP653/KCR cells is inhibited
[1]
  inhibition of PGE2 binding by subtype ligands: more weakly
EP2
  cross-reaction to EP2: weak cross-reaction

## CCCCC[C@H](O)/C=C/[C@H]1C(=O)C[C@H](O)[C@@H]1C/C=C\CCCC(=O)O [PGD2]
[2]
  order of inhibition of [3H]PGE2 binding by unlabeled PGs: PGE2 =PGE1 >iloprost, a PGI2 analogue>PGF2α >PGD2
[1]
  order of inhibition of specific [3H]-PGE2 binding by unlabeled PG: PGE2 (.largecircle.)=PGE1 (.circle-solid.)>>iloprost(.box-solid.), a stable PGI2 analogue ≥PGF2α (Δ)PGD2 (.quadrature.)

## CCCCC[C@H](O)/C=C/[C@H]1[C@H](O)CC(=O)[C@@H]1CCCCCCC(=O)O [PGE1]
[2]
  order of inhibition of [3H]PGE2 binding by unlabeled PGs: PGE2 =PGE1 >iloprost, a PGI2 analogue>PGF2α >PGD2
[1]
  order of inhibition of specific [3H]-PGE2 binding by unlabeled PG: PGE2 (.largecircle.)=PGE1 (.circle-solid.)>>iloprost(.box-solid.), a stable PGI2 analogue ≥PGF2α (Δ)PGD2 (.quadrature.)

## CCCCC[C@H](O)/C=C/[C@H]1[C@H](O)CC(=O)[C@@H]1C/C=C\CCCC(=O)O [PGE2, prostaglandin E2]
[2]
  order of inhibition of [3H]PGE2 binding by unlabeled PGs: PGE2 =PGE1 >iloprost, a PGI2 analogue>PGF2α >PGD2
[3]; FIG. 3
  effect on forskolin-induced cAMP synthesis/accumulation: dosedependent decrease
[3]; forskolin-induced, FIG. 3, read-out: IC50 (inhibition of forskolin-induced cAMP synthesis)
  IC50: 0.1 nM
[4]
  effect on forskolin-stimulated cAMP synthesis: cAMP synthesis in MP653/KCR cells is inhibited
[1]
  order of inhibition of specific [3H]-PGE2 binding by unlabeled PG: PGE2 (.largecircle.)=PGE1 (.circle-solid.)>>iloprost(.box-solid.), a stable PGI2 analogue ≥PGF2α (Δ)PGD2 (.quadrature.)
EP2 receptor (MP412); forskolin
  inhibition of forskolin-induced cAMP formation: neither inhibited forskolin-induced cAMP formation
EP2 receptor (MP412); no forskolin stated, FIG. 9
  cAMP level: dose-dependently increased cAMP level

## CCCCC[C@H](O)/C=C/[C@@H]1[C@@H](C/C=C\CCCC(=O)O)[C@@H](O)C[C@H]1O [PGF2α]
[2]
  order of inhibition of [3H]PGE2 binding by unlabeled PGs: PGE2 =PGE1 >iloprost, a PGI2 analogue>PGF2α >PGD2
[1]
  order of inhibition of specific [3H]-PGE2 binding by unlabeled PG: PGE2 (.largecircle.)=PGE1 (.circle-solid.)>>iloprost(.box-solid.), a stable PGI2 analogue ≥PGF2α (Δ)PGD2 (.quadrature.)

## CC(=O)NNC(=O)N1Cc2ccccc2Oc2ccc(Cl)cc21 [SC-19220]
[2]
  competition for [3H]PGE2 binding: no competition was found at all
[1]
  inhibition of PGE2 binding by subtype ligands: did not inhibit it

## CCCCC[C@H](O)/C=C/[C@H]1[C@H](O)CC(=O)[C@@H]1C/C=C\CCCC(=O)O [[3H]-PGE2]
[2]
  specific binding of [3H]-labeled prostaglandin: found to show specific binding
EP3β receptor (MP653)
  specific binding of [3H]-labeled prostaglandin: found to show specific binding
[1]
  specific binding of [3H]-labeled prostaglandin: found to show specific binding
[5]; listed as [^3 H]-PGE2
  binding to membranes of untransfected cells: almost negligible
[5]; listed as [^3 H]PGE2
  binding to membranes of untransfected cells: did not bind to membranes of untransfected cells

## CCCC1([C@H](O)C/C=C/[C@H]2[C@H](O)CC(=O)[C@@H]2CCCCCCC(=O)OC)CCC1 [butaprost]
[2]
  competition for [3H]PGE2 binding: no competition was found at all
[1]
  inhibition of PGE2 binding by subtype ligands: did not inhibit it

## CC#CCC(C)[C@H](O)/C=C/[C@@H]1[C@H]2C/C(=C/CCCC(=O)O)C[C@H]2C[C@H]1O (some centres unmarked) [iloprost]
[2]
  order of inhibition of [3H]PGE2 binding by unlabeled PGs: PGE2 =PGE1 >iloprost, a PGI2 analogue>PGF2α >PGD2
[1]
  order of inhibition of specific [3H]-PGE2 binding by unlabeled PG: PGE2 (.largecircle.)=PGE1 (.circle-solid.)>>iloprost(.box-solid.), a stable PGI2 analogue ≥PGF2α (Δ)PGD2 (.quadrature.)

## CS(=O)(=O)NC(=O)CCC/C=C\C[C@H]1C(=O)C[C@@H](O)[C@@H]1/C=C/[C@@H](O)COc1ccccc1 [sulprostone]
[1]
  inhibition of PGE2 binding by subtype ligands: did not inhibit it
